ChEMBL document CHEMBL1201862, “PubChem BioAssay data set” (2004)
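Five concentrations, 48 hours, 96-well plates. The concentration for 50% growth inhibition is given as GI50.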 Activity calls are given as the source filed them. Rule as the data show it: active = GI50 up to about 1.1 µM and inactive = higher.

Key:
Assay in all cases: NCI tumour cell line growth inhibition, 48 h
CCRF-CEM = tested on: CCRF-CEM
DU-145 = tested on: DU-145
HCT-15 = tested on: HCT-15
HT-29 = tested on: HT-29
K562 = tested on: K562
KM12 = tested on: KM12
LOX IMVI = tested on: LOX IMVI
MOLT-4 = tested on: MOLT-4
Malme-3M = tested on: Malme-3M
NCI-H522 = tested on: NCI-H522
OVCAR-5 = tested on: OVCAR-5
PC-3 = tested on: PC-3
SK-MEL-2 = tested on: SK-MEL-2
SK-OV-3 = tested on: SK-OV-3
SN12C = tested on: SN12C
SNB-75 = tested on: SNB-75
MDA-MB-231 = tested on: MDA-MB-231
RPMI-8226 = tested on: RPMI-8226
U-251 = tested on: U-251
OVCAR-4 = tested on: OVCAR-4

Row | Structure (SMILES) | GI50 (CCRF-CEM) | GI50 (DU-145) | GI50 (HCT-15) | GI50 (HT-29) | GI50 (K562) | GI50 (KM12) | GI50 (LOX IMVI) | GI50 (MOLT-4) | GI50 (Malme-3M) | GI50 (NCI-H522) | GI50 (OVCAR-5) | GI50 (PC-3) | GI50 (SK-MEL-2) | GI50 (SK-OV-3) | GI50 (SN12C) | GI50 (SNB-75) | GI50 (MDA-MB-231) | GI50 (RPMI-8226) | GI50 (U-251) | GI50 (OVCAR-4)
1 | CSc1ccc(/C=C2\N=C(c3ccccc3)N(NC(=O)c3c(Cl)c(Cl)c(Cl)c(Cl)c3-c3nc4ccccc4[nH]3)C2=O)cc1 | 25.9 µM (inactive) | 28.4 µM (inactive) | 15.1 µM | 36.2 µM (inactive) | 5.5 µM (inactive) | 6.84 µM (inactive) | 30.9 µM (inactive) | 20.7 µM (inactive) | 30.1 µM (inactive) | 28.4 µM (inactive) | 81.7 µM (inactive) | 36.6 µM (inactive) | 34.9 µM (inactive) | 5.48 µM (inactive) | 31 µM (inactive) | 8.3 µM (inactive) | – | – | – | –
2 | CCOC(=O)CCC(NC(=O)C(N)c1ccc([N+](=O)[O-])cc1)C(=O)NC(CCC(=O)OCC)C(=O)OCC (centres undefined) | – | – | > 100 µM | > 100 µM (inactive) | > 100 µM (inactive) | > 100 µM (inactive) | – | > 100 µM (inactive) | > 100 µM (inactive) | – | > 100 µM (inactive) | > 100 µM (inactive) | > 100 µM (inactive) | – | > 100 µM (inactive) | > 100 µM (inactive) | > 100 µM (inactive) | > 100 µM (inactive) | > 100 µM (inactive) | –
3 | COC(=O)c1oc([N+](=O)[O-])c(-c2ccccc2)c1-c1ccccc1 | 67.9 µM (inactive) | – | – | 88.3 µM (inactive) | > 100 µM (inactive) | > 100 µM (inactive) | 35.5 µM (inactive) | 33.6 µM (inactive) | > 100 µM (inactive) | > 100 µM (inactive) | > 100 µM (inactive) | – | > 100 µM (inactive) | > 100 µM (inactive) | > 100 µM (inactive) | > 100 µM (inactive) | – | > 100 µM (inactive) | > 100 µM (inactive) | > 100 µM (inactive)
4 | C[C@H]1[C@H](N2CCCC2)O[Si](C(C)(C)C)(C(C)(C)C)[C@@H]1C | 36.2 µM (inactive) | – | > 100 µM | > 100 µM (inactive) | 97.3 µM (inactive) | > 100 µM (inactive) | > 100 µM (inactive) | > 100 µM (inactive) | 59.2 µM (inactive) | > 100 µM (inactive) | > 100 µM (inactive) | 99.5 µM (inactive) | > 100 µM (inactive) | > 100 µM (inactive) | > 100 µM (inactive) | 74.6 µM (inactive) | > 100 µM (inactive) | > 100 µM (inactive) | > 100 µM (inactive) | > 100 µM (inactive)
5 | C=CCn1c2c(sc1=S)C(S)NC=N2 (centres undefined) | 95.9 µM (inactive) | – | > 100 µM | > 100 µM (inactive) | 73.5 µM (inactive) | > 100 µM (inactive) | > 100 µM (inactive) | > 100 µM (inactive) | 10.4 µM (inactive) | 34.8 µM (inactive) | > 100 µM (inactive) | – | > 100 µM (inactive) | > 100 µM (inactive) | > 100 µM (inactive) | > 100 µM (inactive) | – | 38.5 µM (inactive) | 32.6 µM (inactive) | > 100 µM (inactive)
6 | C=C1C(=O)OC2/C=C(\C=O)CC/C=C(\C)C(O)C[C@@H]12 (some centres undefined) | 2.57 µM (inactive) | – | 3.65 µM | 3.08 µM (inactive) | 3.33 µM (inactive) | 5.77 µM (inactive) | 6.18 µM (inactive) | 2.77 µM (inactive) | 5.07 µM (inactive) | 1.54 µM (inactive) | 23.6 µM (inactive) | – | 10.5 µM (inactive) | 21.3 µM (inactive) | 7.52 µM (inactive) | 15.1 µM (inactive) | – | 1.95 µM (inactive) | 18.8 µM (inactive) | 14.1 µM (inactive)
